# Assay results from patent publication US20030087906A1, “NITROGEN SUBSTITUTED BIARYL PURINE DERIVATIVES AS POTENT ANTIPROLIFERATIVE AGENTS” (priority 2001, published 2003).
# How the values were obtained:
# [1] = tested on: Tumor Cells in Hollow Fibers; test: NCI Hollow Fiber Assay (in vivo evaluation)
# [2] = MTD (NCI in vivo evaluation, Table 8); conditions: mouse
# [3] = target: CyclinA/cdk2 (Homo sapiens, UniProt P24941); test: CyclinA/cdk2 protein kinase assay (histone H1 phosphorylation); conditions: IC50 CyclinA/cdk2, complex immunopurified from HeLa cells; 15 μM ATP; replicate experiments
# [4] = target: CyclinE/cdk2 (Homo sapiens, UniProt P24941); test: CyclinE/cdk2 protein kinase assay (histone H1 phosphorylation); conditions: IC50 CyclinE/cdk2, complex immunopurified from HeLa cells; 15 μM ATP; replicate experiments
smiles,measurement,setting,value
CC(=O)N[C@H]1CC[C@H](Nc2nc(NCc3ccc(-c4ccsc4)cc3)c3ncn(C(C)C)c3n2)CC1 [Compound 113],Cell Types Killed,[1],OVCAR-3
same,IP Score,[1]; IP fibers,18
same,SC score,[1]; SC fibers,4
same,MTD,[2],200 mg/kg
same,IC50,[3],400 nM
same,IC50,[4],300 nM
